Assay results published in paper PMC11070402, “New antiproliferative 3-substituted oxindoles inhibiting EGFR/VEGFR-2 and tubulin polymerization” (Molecular Diversity, 2023).

Assays:
MCF-7 cells = assay: Cell cycle analysis by DNA flow cytometry; assay type: cell-based, human
Method: MCF-7 Cells were placed in a six-well plate at 1 × 10^5 concentration of cells/well and then kept for incubation for 24 h. […] Cells were then collected and fixed for 12 h using ice-cold 70% ethanol at 4 °C. Ethanol was then removed, and cells were washed with cold phosphate buffer saline (PBS, 0.5 ml) and preserved for 30 min at 37 °C. The cells were stained for 30 min with propidium iodide in the dark. A flow cytometer was used to detect DNA content.

tubulin = assay: Tubulin polymerization inhibition assay; assay type: biochemical
PDGFR_ẞ = target: T1, PDGFR_ẞ (Homo sapiens, UniProt P09619); assay: PDGFR_ẞ kinase assay kit (Kinase-Glo MAX); assay type: biochemical
T1 construct: purchased
Method: (§1) The receptor tyrosine kinases, namely EGFR, VEGFR-2, and PDGFR_ẞ Kinases Assay Kits, are designed to measure EGFR, VEGFR-2, and PDGFR_ẞ Kinases’ activities for screening and profiling applications using Kinase-Glo® MAX as a detection reagent. The EGFR, VEGFR-2, and PDGFR_ẞ Kinases Assay Kits come in a convenient 96-well format, with enough purified recombinant EGFR enzyme, EGFR substrate, ATP, and kinase assay buffer for 100 enzyme reactions. The master mixture (25 µl per well) was equipped out of Kinase assay buffer (6 µl), ATP (500 µM, 1 µl), PTK substrate (50x, 1 µl), and water (17 µl) and transferred into each well. […] EGFR, VEGFR-2, and PDGFR_ẞ Kinases were softened on ice. Its tube was spun briefly to recover its full content of the tube. These enzymes were diluted with 1 × Kinase assay buffer to 1 ng/ µl. The reaction was initiated by adding 20 µl of diluted EGFR, VEGFR-2, and PDGFR_ẞ enzymes to the wells designated “Positive Control” and “Test Inhibitor Control.” The plate was incubated at 30 °C for 40 min. After the 40-min reaction, the Kinase-Glo Max (50 µl) reagent was added to each well. The plate was covered with aluminum foil and incubated at room temperature for 15 min, and the luminescence was measured using the microplate reader.

VEGFR-2 (KDR) = target: T2, VEGFR-2 (KDR) (Homo sapiens, UniProt P35968); assay: VEGFR-2 kinase assay kit (Kinase-Glo MAX); assay type: biochemical
T2 construct: purchased
Method: as §1

[1] = test system: NCI/ADR-RES (ovarian cancer cell line); assay: NCI one-dose assay, NCI/ADR-RES; assay type: cell-based; settings: Homo sapiens; NCI/ADR-RES; 10 µM single dose, 48 h incubation; read-out: cell growth inhibition % (GI %)
Method: All novel scaffolds 6a–j were carefully selected by the National Cancer Institute (NCI), Bethesda, USA, to elucidate their cytotoxic activity versus 60 human cancer cell lines at 10 µM as a single-dose concentration after a 48 h incubation period.
National Cancer Institution selected all the synthesized 6a–j (NCI), Bethesda, USA, for in vitro one-dose antitumor assay. The methodology protocol for the NCI anticancer screening was reported in detail elsewhere (http://www.dtp.nci.nih.gov). The anticancer assay was performed in full NCI 60 cell lines extracted from nine tumor cell lines, including leukemia, melanoma, lung, colon, CNS, ovarian, renal, prostate, and breast cancer cell lines.

T1 sequence (P09619 33-1106, species assumed): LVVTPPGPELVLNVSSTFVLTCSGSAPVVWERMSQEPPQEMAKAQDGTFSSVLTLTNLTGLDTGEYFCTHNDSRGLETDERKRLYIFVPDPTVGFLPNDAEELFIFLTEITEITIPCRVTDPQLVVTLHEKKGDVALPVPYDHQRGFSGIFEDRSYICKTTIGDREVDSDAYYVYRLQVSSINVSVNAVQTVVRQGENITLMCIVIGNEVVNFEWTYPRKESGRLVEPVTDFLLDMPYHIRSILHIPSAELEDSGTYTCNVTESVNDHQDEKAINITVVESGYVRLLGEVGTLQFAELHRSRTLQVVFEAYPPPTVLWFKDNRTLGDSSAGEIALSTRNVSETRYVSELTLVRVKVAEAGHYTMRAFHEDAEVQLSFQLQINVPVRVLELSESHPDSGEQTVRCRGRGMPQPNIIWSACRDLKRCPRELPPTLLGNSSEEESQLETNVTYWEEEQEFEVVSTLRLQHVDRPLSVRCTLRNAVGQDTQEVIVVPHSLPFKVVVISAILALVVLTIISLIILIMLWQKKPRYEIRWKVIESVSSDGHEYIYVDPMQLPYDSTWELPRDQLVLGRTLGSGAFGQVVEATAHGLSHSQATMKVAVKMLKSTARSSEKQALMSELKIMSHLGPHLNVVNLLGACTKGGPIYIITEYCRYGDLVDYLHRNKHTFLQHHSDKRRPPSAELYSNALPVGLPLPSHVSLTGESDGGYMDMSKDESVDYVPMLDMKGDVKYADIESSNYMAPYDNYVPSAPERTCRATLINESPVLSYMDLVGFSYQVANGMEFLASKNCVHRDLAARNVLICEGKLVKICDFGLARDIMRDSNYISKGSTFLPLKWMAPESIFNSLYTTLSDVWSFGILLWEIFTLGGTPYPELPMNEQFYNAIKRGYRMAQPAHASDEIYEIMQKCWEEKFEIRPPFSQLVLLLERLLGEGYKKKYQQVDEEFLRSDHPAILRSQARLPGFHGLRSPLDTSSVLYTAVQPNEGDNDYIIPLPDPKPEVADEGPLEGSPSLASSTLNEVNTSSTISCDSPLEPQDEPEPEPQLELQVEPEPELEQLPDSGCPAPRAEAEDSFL
T2 sequence (P35968 20-1356): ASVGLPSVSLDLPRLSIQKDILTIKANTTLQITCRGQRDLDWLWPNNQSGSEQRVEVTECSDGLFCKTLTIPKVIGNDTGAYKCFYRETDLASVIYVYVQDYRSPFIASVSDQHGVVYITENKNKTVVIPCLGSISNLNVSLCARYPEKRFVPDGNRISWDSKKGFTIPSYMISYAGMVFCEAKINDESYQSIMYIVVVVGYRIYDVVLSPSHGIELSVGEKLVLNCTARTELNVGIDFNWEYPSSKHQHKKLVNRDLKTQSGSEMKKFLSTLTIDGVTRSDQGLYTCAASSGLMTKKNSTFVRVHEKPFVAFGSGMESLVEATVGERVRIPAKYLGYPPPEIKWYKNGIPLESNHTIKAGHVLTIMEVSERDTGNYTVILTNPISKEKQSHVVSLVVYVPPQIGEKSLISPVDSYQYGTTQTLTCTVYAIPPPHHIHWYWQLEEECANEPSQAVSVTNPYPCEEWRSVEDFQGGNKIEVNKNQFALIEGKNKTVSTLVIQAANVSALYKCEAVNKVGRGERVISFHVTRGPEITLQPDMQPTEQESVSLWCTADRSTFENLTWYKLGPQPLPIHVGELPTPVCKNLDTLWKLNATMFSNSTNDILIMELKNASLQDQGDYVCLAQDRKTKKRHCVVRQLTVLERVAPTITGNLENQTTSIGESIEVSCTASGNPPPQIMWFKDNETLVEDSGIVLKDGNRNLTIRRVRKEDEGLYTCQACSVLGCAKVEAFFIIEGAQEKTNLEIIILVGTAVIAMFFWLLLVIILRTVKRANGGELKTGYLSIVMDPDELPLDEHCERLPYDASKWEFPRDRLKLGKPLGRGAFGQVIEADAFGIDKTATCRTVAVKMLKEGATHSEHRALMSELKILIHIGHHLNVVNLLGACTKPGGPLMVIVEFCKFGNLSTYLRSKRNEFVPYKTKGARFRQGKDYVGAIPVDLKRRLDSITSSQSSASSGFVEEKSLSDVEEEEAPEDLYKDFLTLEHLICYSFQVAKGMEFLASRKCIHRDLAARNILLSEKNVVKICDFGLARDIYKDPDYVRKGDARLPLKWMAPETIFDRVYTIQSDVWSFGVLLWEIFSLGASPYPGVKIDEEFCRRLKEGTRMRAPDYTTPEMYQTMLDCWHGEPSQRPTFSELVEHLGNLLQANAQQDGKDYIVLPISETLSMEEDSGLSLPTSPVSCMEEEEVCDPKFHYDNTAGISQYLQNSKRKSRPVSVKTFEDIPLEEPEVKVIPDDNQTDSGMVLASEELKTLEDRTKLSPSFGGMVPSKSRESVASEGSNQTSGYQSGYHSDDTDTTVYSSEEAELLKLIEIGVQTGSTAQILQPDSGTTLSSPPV

Row | SMILES | cell cycle arrest phase (MCF-7 cells; MCF-7 cells, flow cytometry) | Freq G1 (percentage of cells) (MCF-7 cells; MCF-7 treated with IC50 of compound 6f (19.43 μM in method), 24 h, control 40.68) | %inh Tub (tubulin; conc 0.1 (uM printed only in the CA-4 head)) | %inh Tub (tubulin; conc 1 (uM printed only in the CA-4 head)) | %inh Tub (tubulin; conc 10 (uM printed only in the CA-4 head)) | %inh Tub (tubulin; conc 100 (uM printed only in the CA-4 head)) | IC50 (tubulin; read-out: Tubulin polymerization inhibition (IC50 ± SD)) | %inh PDGFRβ (PDGFR_ẞ; conc 0.01 (unit not given)) | %inh PDGFRβ (PDGFR_ẞ; conc 0.1 (unit not given)) | %inh PDGFRβ (PDGFR_ẞ; conc 1 (unit not given)) | %inh PDGFRβ (PDGFR_ẞ; conc 10 (unit not given)) | IC50 (PDGFR_ẞ; read-out: PDGFR_ẞ inhibition (IC50 ± SD)) | %inh VEGFR-2 (VEGFR-2 (KDR); conc 0.01 (unit not given)) | %inh VEGFR-2 (VEGFR-2 (KDR); conc 0.1 (unit not given)) | %inh VEGFR-2 (VEGFR-2 (KDR); conc 1 (unit not given)) | %inh VEGFR-2 (VEGFR-2 (KDR); conc 10 (unit not given)) | IC50 (VEGFR-2 (KDR); read-out: VEGFR-2 inhibition (IC50 ± SD)) | inhibition at 10 µM [1] | melting point
1 | O=C1Nc2ccccc2C1=Cc1ccc(OCC(=O)c2ccc(Br)cc2)cc1 [Compound 6f, 3-{4-[2-(4-Bromophenyl)-2-oxoethoxy]benzylidene}indolin-2-one] | G0–G1phase | 51.30% | 7% | 15% | 56% | 80% | 7.99 ± 0.49 µM | 25.63% | 40.59% | 70.36% | 88.18% | 3.18 ± 0.007 µM | 12.36% | 36.13% | 73.94% | 88.74% | 5.75 ± 0.011 µM |  | 
2 | O=C1Nc2cc(Cl)ccc2C1=Cc1ccc(OCC(=O)c2ccc(Br)cc2)cc1 [Compound 6g, 6-Chloro-3-{4-[2-(4-bromophenyl)-2-oxoethoxy]benzylidene}indolin-2-one] |  |  |  |  |  |  |  |  |  |  |  |  |  |  |  |  |  | 52.2% | 249 to 251 °C
